Assay results from the supplement of paper PMC12592484.

Tests used:
Assay in all cases: drug sensitivity score (DSS2, normalised partial AUC of dose-response, 72 h CellTiter-Glo viability) (DSS (dimensionless)); higher = more sensitive (stronger growth inhibition / cytotoxicity); extreme values may be limits of the assay
[1] = test system: CAF#4 (primary prostate cancer-associated fibroblasts of iCAF-like type)
Procedure, shortened: (§1)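 In BREEZE, the drug sensitivity score was derived as a partial area under a fitted logistic dose–response curve over the log of that curve's upper asymptote; a higher score marks a more sensitive response. The input came from low-passage primary prostate cancer-associated fibroblasts, PF179T, WPMY-1, LNCaP and 22Rv1 cells, each seeded into 384-well plates with compounds pre-dispensed at five doses spanning a 10,000-fold range. CellTiter-Glo 2.0 luminescence after 72 h gave viability, which was normalized to vehicle and positive-control wells.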

[2] = test system: CAF#5 (primary prostate cancer-associated fibroblasts of myCAF-like type)
Procedure, shortened: as §1

[3] = test system: WPMY-1
Procedure, shortened: as §1

[4] = test system: CAF#3 (primary prostate cancer-associated fibroblasts of myCAF-like type)
Procedure, shortened: as §1

[5] = test system: CAF#7 (primary prostate cancer-associated fibroblasts of myCAF-like type)
Procedure, shortened: as §1

[6] = test system: CAF#6 (primary prostate cancer-associated fibroblasts of iCAF-like type)
Procedure, shortened: as §1

[7] = test system: CAF#1 (primary prostate cancer-associated fibroblasts of myCAF-like type)
Procedure, shortened: as §1

[8] = test system: 22Rv1
Procedure, shortened: as §1

[9] = test system: LNCAP
Procedure, shortened: as §1

[10] = test system: PF179T
Procedure, shortened: as §1

[11] = test system: CAF#2 (primary prostate cancer-associated fibroblasts of iCAF-like type)
Procedure, shortened: as §1

N#CC(c1ccnc(OCc2ccc(CN3CCOCC3)cc2)n1)c1nc2ccccc2s1 (stereo not given) [Bentamapimod] (tested concentration range 1-10000 nM) gave a drug sensitivity score [1] of 3.4, a drug sensitivity score [2] of 0 and a drug sensitivity score [3] of 2.8. It also gave a drug sensitivity score [4] of 0, a drug sensitivity score [5] of 0 and a drug sensitivity score [6] of 0. For the same molecule, the drug sensitivity score [7] was 1.7, the drug sensitivity score [8] was 1.8 and the drug sensitivity score [9] was 5.2. The drug sensitivity score [10] was 0 and the drug sensitivity score [11] was 2.6.
C=C(c1ccc(C(=O)O)cc1)c1cc2c(cc1C)C(C)(C)CCC2(C)C [Bexarotene] (tested concentration range 1-10000 nM) gave a drug sensitivity score [1] of 3.7, a drug sensitivity score [2] of 3.8 and a drug sensitivity score [3] of 2.1. For the same molecule, the drug sensitivity score [4] was 0, the drug sensitivity score [5] was 1.2 and the drug sensitivity score [6] was 0. For the same molecule, the drug sensitivity score [7] was 4.7, the drug sensitivity score [8] was 1.6 and the drug sensitivity score [9] was 0. It also gave a drug sensitivity score [10] of 10.2 and a drug sensitivity score [11] of 10.1.
In the case of CC(O)(CS(=O)(=O)c1ccc(F)cc1)C(=O)Nc1ccc(C#N)c(C(F)(F)F)c1 (stereo not given) [Bicalutamide] (tested concentration range 1-10000 nM), the drug sensitivity score [1] is reported as 0, the drug sensitivity score [2] is reported as 1.2 and the drug sensitivity score [3] is reported as 0. For the same molecule, the drug sensitivity score [4] was 1.4, the drug sensitivity score [5] was 0.5 and the drug sensitivity score [6] was 1.1. The drug sensitivity score [7] was 1.7, the drug sensitivity score [8] was 0.5 and the drug sensitivity score [9] was 2.3. The drug sensitivity score [10] was 0.2 and the drug sensitivity score [11] was 1.5.
For CCNC(=O)CCC/C=C\C[C@@H]1[C@@H](/C=C/[C@@H](O)CCc2ccccc2)[C@H](O)C[C@@H]1O [Bimatoprost] (tested concentration range 0.6-5500 nM), the drug sensitivity score [1] was 0, the drug sensitivity score [2] was 0 and the drug sensitivity score [3] was 0. For the same molecule, the drug sensitivity score [4] was 0.1, the drug sensitivity score [5] was 0 and the drug sensitivity score [6] was 0. The drug sensitivity score [7] was 0, the drug sensitivity score [8] was 0 and the drug sensitivity score [9] was 0. It also gave a drug sensitivity score [10] of 0 and a drug sensitivity score [11] of 0.
Molecule Cn1cnc2c(F)c(Nc3ccc(Br)cc3F)c(C(=O)NOCCO)cc21 [Binimetinib] (tested concentration range 0.1-1000 nM) has a drug sensitivity score [1] of 0, a drug sensitivity score [2] of 0.8 and a drug sensitivity score [3] of 0.9. It also gave a drug sensitivity score [4] of 0, a drug sensitivity score [5] of 0.2 and a drug sensitivity score [6] of 0. It also gave a drug sensitivity score [7] of 0, a drug sensitivity score [8] of 8.7 and a drug sensitivity score [9] of 0. It also gave a drug sensitivity score [10] of 0 and a drug sensitivity score [11] of 2.2.
Cc1sc2c(c1C)C(c1ccc(Cl)cc1)=N[C@@H](CC(=O)Nc1ccc(O)cc1)c1nnc(C)n1-2 [Birabresib] (tested concentration range 1-10000 nM) gave a drug sensitivity score [1] of 3.4, a drug sensitivity score [2] of 3.1 and a drug sensitivity score [3] of 11.9. The drug sensitivity score [4] was 11.8, the drug sensitivity score [5] was 3 and the drug sensitivity score [6] was 5.1. The drug sensitivity score [7] was 9.4, the drug sensitivity score [8] was 13.4 and the drug sensitivity score [9] was 19.8. It also gave a drug sensitivity score [10] of 2.8 and a drug sensitivity score [11] of 9.9.
In the case of CC[C@H](NC(=O)[C@H](C)NC)C(=O)N1C[C@@H](O)C[C@H]1Cc1c(-c2[nH]c3cc(F)ccc3c2C[C@@H]2C[C@H](O)CN2C(=O)[C@H](CC)NC(=O)[C@H](C)NC)[nH]c2cc(F)ccc12 [Birinapant] (tested concentration range 0.1-1000 nM), the drug sensitivity score [1] is reported as 0, the drug sensitivity score [2] is reported as 0 and the drug sensitivity score [3] is reported as 0. The drug sensitivity score [4] was 0, the drug sensitivity score [5] was 0 and the drug sensitivity score [6] was 0.8. It also gave a drug sensitivity score [7] of 0, a drug sensitivity score [8] of 0 and a drug sensitivity score [9] of 0.1. For the same molecule, the drug sensitivity score [10] was 0 and the drug sensitivity score [11] was 0.
In the case of Cc1c(N)nc([C@H](CC(N)=O)NC[C@H](N)C(N)=O)nc1C(=O)N[C@H](C(=O)N[C@H](C)[C@@H](O)[C@H](C)C(=O)N[C@H](C(=O)NCCc1nc(-c2nc(C(=O)NCCC[S+](C)C)cs2)cs1)[C@@H](C)O)[C@@H](OC1OC(CO)C(O)C(O)C1OC1OC(CO)C(O)C(OC(N)=O)C1O)c1cnc[nH]1 (stereo not given in full) [Bleomycin] (tested concentration range 1-10000 nM), the drug sensitivity score [1] is reported as 5.7, the drug sensitivity score [2] is reported as 3.2 and the drug sensitivity score [3] is reported as 0.4. The drug sensitivity score [4] was 5.7, the drug sensitivity score [5] was 9.7 and the drug sensitivity score [6] was 7.7. For the same molecule, the drug sensitivity score [7] was 0.6, the drug sensitivity score [8] was 3.7 and the drug sensitivity score [9] was 7.5. The drug sensitivity score [10] was 3.3 and the drug sensitivity score [11] was 3.9.
CC(C)C[C@H](NC(=O)[C@H](Cc1ccccc1)NC(=O)c1cnccn1)B(O)O [Bortezomib] (tested concentration range 0.1-1000 nM) gave a drug sensitivity score [1] of 20, a drug sensitivity score [2] of 28.1 and a drug sensitivity score [3] of 30.6. For the same molecule, the drug sensitivity score [4] was 26.9, the drug sensitivity score [5] was 24.3 and the drug sensitivity score [6] was 23.7. For the same molecule, the drug sensitivity score [7] was 23.9, the drug sensitivity score [8] was 24.9 and the drug sensitivity score [9] was 28.8. For the same molecule, the drug sensitivity score [10] was 20.9 and the drug sensitivity score [11] was 30.1.
Molecule COc1cc(Nc2c(C#N)cnc3cc(OCCCN4CCN(C)CC4)c(OC)cc23)c(Cl)cc1Cl [Bosutinib] (tested concentration range 1-10000 nM) has a drug sensitivity score [1] of 5.8, a drug sensitivity score [2] of 6.2 and a drug sensitivity score [3] of 9.2. It also gave a drug sensitivity score [4] of 6.6, a drug sensitivity score [5] of 4.1 and a drug sensitivity score [6] of 5.1. The drug sensitivity score [7] was 7.4, the drug sensitivity score [8] was 7.7 and the drug sensitivity score [9] was 10.1. It also gave a drug sensitivity score [10] of 4.8 and a drug sensitivity score [11] of 8.5.
